According to patent US11739098B2 (BRISTOL-MYERS SQUIBB COMPANY, priority 2017, dated 2023):

Key:
Type in all cases: cell-based
human TLR8 = target: T1, human TLR8 (Homo sapiens, UniProt Q9NR97); assay: TLR8 inhibition reporter assay (HEK-Blue cells, SEAP reporter, R848 stimulation); conditions: HEK-Blue cells overexpressing human TLR8, SEAP reporter, R848 15.9 μM
T1 construct: host or cells: HEK-Blue cells (HEK293-derived reporter line)
T1 sequence (Q9NR97 27-1041): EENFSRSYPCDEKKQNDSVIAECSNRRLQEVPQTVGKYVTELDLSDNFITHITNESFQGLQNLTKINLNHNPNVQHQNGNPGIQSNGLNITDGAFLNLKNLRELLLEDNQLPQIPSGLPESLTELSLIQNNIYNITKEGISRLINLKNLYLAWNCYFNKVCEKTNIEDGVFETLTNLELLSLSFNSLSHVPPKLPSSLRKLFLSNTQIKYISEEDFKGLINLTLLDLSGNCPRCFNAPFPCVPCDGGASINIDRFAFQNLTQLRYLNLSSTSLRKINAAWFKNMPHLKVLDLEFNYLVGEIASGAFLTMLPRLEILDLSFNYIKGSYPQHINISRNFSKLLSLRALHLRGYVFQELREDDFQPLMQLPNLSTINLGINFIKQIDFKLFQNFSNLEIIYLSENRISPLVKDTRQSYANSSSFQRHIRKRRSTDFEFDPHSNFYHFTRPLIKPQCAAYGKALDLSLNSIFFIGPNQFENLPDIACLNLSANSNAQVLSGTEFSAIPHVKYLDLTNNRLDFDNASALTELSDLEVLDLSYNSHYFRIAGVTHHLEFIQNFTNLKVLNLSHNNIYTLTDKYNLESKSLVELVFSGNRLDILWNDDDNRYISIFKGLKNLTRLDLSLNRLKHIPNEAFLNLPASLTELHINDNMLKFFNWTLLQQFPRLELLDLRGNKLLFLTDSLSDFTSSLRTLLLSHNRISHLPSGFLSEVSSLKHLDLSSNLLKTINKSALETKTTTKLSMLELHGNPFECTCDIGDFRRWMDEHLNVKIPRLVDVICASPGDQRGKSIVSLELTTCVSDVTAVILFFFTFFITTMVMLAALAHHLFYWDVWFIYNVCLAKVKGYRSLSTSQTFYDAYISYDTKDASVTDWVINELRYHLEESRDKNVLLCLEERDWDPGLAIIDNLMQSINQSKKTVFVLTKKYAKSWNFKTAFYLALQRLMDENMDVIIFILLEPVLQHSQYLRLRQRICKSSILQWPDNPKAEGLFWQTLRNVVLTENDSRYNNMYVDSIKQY
Procedure, shortened: (§1)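 Cells seeded per well (15000 TLR7, 20,000 TLR8, 25,000 TLR9); compound added over 0.05 nM–50 μM for 30 min at room temperature; agonist added (TLR7 gardiquimod 7.5 μM, TLR8 R848 15.9 μM, TLR9 ODN2006 5 nM); 22 h at 37 °C; SEAP measured; percent inhibition calculated.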

human TLR9 = target: T2, human TLR9 (Homo sapiens, UniProt Q9NR96); assay: TLR9 inhibition reporter assay (HEK-Blue cells, SEAP reporter, ODN2006 stimulation); conditions: HEK-Blue cells overexpressing human TLR9, SEAP reporter, ODN2006 5 nM
T2 construct: host or cells: HEK-Blue cells (HEK293-derived reporter line)
T2 sequence (Q9NR96 26-1032): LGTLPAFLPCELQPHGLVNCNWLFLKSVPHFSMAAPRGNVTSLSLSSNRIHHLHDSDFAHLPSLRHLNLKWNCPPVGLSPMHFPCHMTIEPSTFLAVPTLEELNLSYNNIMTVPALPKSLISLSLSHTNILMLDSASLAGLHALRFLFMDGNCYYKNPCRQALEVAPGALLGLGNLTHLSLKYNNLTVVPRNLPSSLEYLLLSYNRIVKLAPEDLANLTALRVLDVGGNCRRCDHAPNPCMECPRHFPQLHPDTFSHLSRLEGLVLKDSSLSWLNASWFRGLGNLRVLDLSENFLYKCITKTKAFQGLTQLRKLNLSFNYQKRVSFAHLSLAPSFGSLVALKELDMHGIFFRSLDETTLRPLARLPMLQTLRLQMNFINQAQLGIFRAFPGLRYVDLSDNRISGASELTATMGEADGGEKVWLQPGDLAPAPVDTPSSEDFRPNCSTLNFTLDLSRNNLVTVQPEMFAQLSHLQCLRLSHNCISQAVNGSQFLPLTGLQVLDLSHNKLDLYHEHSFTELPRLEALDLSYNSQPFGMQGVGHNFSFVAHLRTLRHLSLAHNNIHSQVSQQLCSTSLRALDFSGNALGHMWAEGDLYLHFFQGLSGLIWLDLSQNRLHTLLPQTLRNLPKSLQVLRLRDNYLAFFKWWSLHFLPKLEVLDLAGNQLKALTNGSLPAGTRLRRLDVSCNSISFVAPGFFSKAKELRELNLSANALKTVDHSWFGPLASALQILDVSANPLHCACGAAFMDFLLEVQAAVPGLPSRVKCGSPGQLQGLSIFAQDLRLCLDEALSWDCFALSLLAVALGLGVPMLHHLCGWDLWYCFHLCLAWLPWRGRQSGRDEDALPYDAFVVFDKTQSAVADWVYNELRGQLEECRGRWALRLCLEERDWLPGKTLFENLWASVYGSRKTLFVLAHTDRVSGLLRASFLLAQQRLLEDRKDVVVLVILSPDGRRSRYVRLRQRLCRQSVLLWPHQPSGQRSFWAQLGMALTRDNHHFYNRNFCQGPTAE
Procedure, shortened: as §1

human TLR7 = target: T3, human TLR7 (Homo sapiens, UniProt Q9NYK1); assay: TLR7 inhibition reporter assay (HEK-Blue cells, SEAP reporter, gardiquimod stimulation); conditions: HEK-Blue cells overexpressing human TLR7, SEAP reporter, gardiquimod 7.5 μM
T3 construct: host or cells: HEK-Blue cells (HEK293-derived reporter line)
T3 sequence (Q9NYK1 27-1049): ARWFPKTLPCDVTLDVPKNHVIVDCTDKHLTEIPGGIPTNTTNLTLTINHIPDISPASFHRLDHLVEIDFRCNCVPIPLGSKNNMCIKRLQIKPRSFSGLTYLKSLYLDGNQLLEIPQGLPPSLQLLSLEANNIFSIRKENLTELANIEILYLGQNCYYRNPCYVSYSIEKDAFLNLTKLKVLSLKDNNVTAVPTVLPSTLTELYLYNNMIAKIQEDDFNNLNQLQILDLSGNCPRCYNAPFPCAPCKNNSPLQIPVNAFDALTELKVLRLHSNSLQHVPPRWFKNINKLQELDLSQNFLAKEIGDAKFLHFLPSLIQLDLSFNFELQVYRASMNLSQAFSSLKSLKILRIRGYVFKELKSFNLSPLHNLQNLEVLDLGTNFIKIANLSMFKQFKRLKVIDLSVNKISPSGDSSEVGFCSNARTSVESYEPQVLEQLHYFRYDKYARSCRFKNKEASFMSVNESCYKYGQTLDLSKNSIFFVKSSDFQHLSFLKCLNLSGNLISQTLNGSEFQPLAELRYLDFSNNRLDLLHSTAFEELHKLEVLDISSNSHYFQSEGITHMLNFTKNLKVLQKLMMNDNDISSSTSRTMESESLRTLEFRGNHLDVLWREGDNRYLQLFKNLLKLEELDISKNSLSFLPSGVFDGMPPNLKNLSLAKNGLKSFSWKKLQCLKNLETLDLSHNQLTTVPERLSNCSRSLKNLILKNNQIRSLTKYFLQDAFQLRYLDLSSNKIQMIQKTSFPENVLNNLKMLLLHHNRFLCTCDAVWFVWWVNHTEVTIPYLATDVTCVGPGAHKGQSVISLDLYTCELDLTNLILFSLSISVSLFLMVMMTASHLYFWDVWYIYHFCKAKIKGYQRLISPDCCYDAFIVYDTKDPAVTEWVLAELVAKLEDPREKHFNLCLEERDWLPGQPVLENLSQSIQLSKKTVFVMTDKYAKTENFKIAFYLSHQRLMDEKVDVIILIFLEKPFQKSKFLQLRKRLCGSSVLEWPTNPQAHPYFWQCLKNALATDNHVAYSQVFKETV
Procedure, shortened: as §1

Row | SMILES | IC50 (human TLR8) | IC50 (human TLR9) | IC50 (human TLR7)
1 | Cc1cc(-c2[nH]c3ccc(C4CCN(CC(=O)N(C)C)CC4)cc3c2C(C)C)cc2cncn12 [Example 439, 2-(4-(3-isopropyl-2-(5-methylimidazo[1,5-a]pyridin-7-yl)-1H-indol-5-yl)piperidin-1-yl)-N,N-dimethylacetamide] | < 100 nM | 1000 to 50000 nM | < 100 nM
2 | CCN(CC)C(=O)C1CCCN(CC(=O)N2CCC(c3ccc4[nH]c(-c5ccnc6[nH]ncc56)c(C(C)C)c4c3)CC2)C1 (stereo not drawn) [Example 588, N,N-diethyl-1-(2-(4-(3-isopropyl-2-(1H-pyrazolo[3,4-b]pyridin-4-yl)-1H-indol-5-yl)piperidin-1-yl)-2-oxoethyl)piperidine-3-carboxamide] | < 100 nM | 100 to 1000 nM | < 100 nM
3 | CC(C)c1c(-c2ccnc3[nH]ncc23)[nH]c2cc(F)c(C3CCN(C4CCN(C(C)C)CC4)CC3)cc12 [Example 830, 4-(6-fluoro-3-isopropyl-5-(1′-isopropyl-[1,4′-bipiperidin]-4-yl)-1H-indol-2-yl)-1H-pyrazolo[3,4-b]pyridine] | < 100 nM | < 100 nM | < 100 nM
4 | Cc1cc(-c2[nH]c3ccc(C4CCN(S(=O)(=O)CCN(C)C)CC4)cc3c2C(C)C)cn2nnnc12 [Example 617, 2-((4-(3-isopropyl-2-(8-methyltetrazolo[1,5-a]pyridin-6-yl)-1H-indol-5-yl)piperidin-1-yl)sulfonyl)-N,N-dimethylethan-1-amine] | < 100 nM | 1000 to 50000 nM | < 100 nM
5 | Cc1cc2cc(-c3[nH]c4ccc(C5CCN(CC(=O)N(C)C)CC5)cc4c3C(C)C)cc(C)n2n1 [Example 420, 2-(4-(2-(2,7-dimethylpyrazolo[1,5-a]pyridin-5-yl)-3-isopropyl-1H-indol-5-yl)piperidin-1-yl)-N,N-dimethylacetamide] | < 100 nM | 1000 to 50000 nM | < 100 nM
6 | Cc1cc2[nH]c(-c3ccnc4[nH]ncc34)c(C(C)C)c2cc1C1CCN(C2CCN(C(C)C)CC2)CC1 [Example 826, 4-(3-isopropyl-5-(1′-isopropyl-[1,4′-bipiperidin]-4-yl)-6-methyl-1H-indol-2-yl)-1H-pyrazolo[3,4-b]pyridine] | < 100 nM | 100 to 1000 nM | < 100 nM
7 | CC(C)c1c(-c2cn(C)c3ncccc23)[nH]c2ccc(C3CCN(CC(C)(C)O)CC3)cc12 [Example 750, 1-(4-(3-isopropyl-2-(1-methyl-1H-pyrrolo[2,3-b]pyridin-3-yl)-1H-indol-5-yl)piperidin-1-yl)-2-methylpropan-2-ol] | < 100 nM | 1000 to 50000 nM | < 100 nM
8 | CC(C)c1c(-c2cc(C(F)(F)F)c3nccn3c2)[nH]c2ccc(C3CCNCC3)cc12 [Example 136, 6-(3-isopropyl-5-(piperidin-4-yl)-1H-indol-2-yl)-8-(trifluoromethyl)imidazo[1,2-a]pyridine] | < 100 nM | 100 to 1000 nM | < 100 nM
9 | COc1cc(-c2[nH]c3ccc(C4CCN(C(=O)CN(C)C)CC4)cc3c2C(C)C)cc2ncnn12 [Example 532, 2-(dimethylamino)-1-(4-(3-isopropyl-2-(5-methoxy-[1,2,4]triazolo[1,5-a]pyridin-7-yl)-1H-indol-5-yl)piperidin-1-yl)ethan-1-one] | < 100 nM | 1000 to 50000 nM | < 100 nM
10 | CCc1c[nH]c2nccc(-c3[nH]c4ccc(C5CCNCC5)cc4c3C(C)C)c12 [Example 222, 3-ethyl-4-(3-isopropyl-5-(piperidin-4-yl)-1H-indol-2-yl)-1H-pyrrolo[2,3-b]pyridine] | < 100 nM | 1000 to 50000 nM | 100 to 1000 nM
11 | Cc1cc(-c2[nH]c3ccc(C4CCN(CC(=O)N(C)C)CC4)cc3c2C(C)C)cc2cn(C)nc12 [Example 379, 2-(4-(2-(2,7-dimethyl-2H-indazol-5-yl)-3-isopropyl-1H-indol-5-yl)piperidin-1-yl)-N,N-dimethylacetamide] | < 100 nM | 1000 to 50000 nM | < 100 nM
12 | Cc1c(-c2[nH]c3ccc(C4CCN(CC(=O)N(C)C)CC4)cc3c2C(C)C)cn2ccnc2c1Cl [Example 415, 2-(4-(2-(8-chloro-7-methylimidazo[1,2-a]pyridin-6-yl)-3-isopropyl-1H-indol-5-yl)piperidin-1-yl)-N,N-dimethylacetamide] | < 100 nM | 1000 to 50000 nM | < 100 nM
13 | Cc1c(-c2[nH]c3ccc(C4CCN(C(=O)CN(C)C)CC4)cc3c2C(C)C)nn2ncnc2c1C [Example 453, 1-(4-(2-(7,8-dimethyl-[1,2,4]triazolo [1,5-b]pyridazin-6-yl)-3-isopropyl-1H-indol-5-yl)piperidin-1-yl)-2-(dimethylamino)ethan-1-one] | < 100 nM | 1000 to 50000 nM | < 100 nM
14 | CNC(=O)CN1CCC(c2ccc3[nH]c(-c4ccn5nc(C)nc5c4)c(C(C)C)c3c2)CC1 [Example 331, 2-(4-(3-isopropyl-2-(2-methyl-[1,2,4]triazolo[1,5-a]pyridin-7-yl)-1H-indol-5-yl)piperidin-1-yl)-N-methylacetamide] | 1000 to 50000 nM | 1000 to 50000 nM | < 100 nM
